| melting point | SMILES |
| --- | --- |
| 225 to 226 °C | CS(=O)(=O)NCCNc1nc(SCc2cccc(F)c2F)nc2[nH]c(=O)sc12 [Example 10, N-[2-[[5-[[(2,3-difluorophenyl)methyl]thio]-2,3-dihydro-2-oxothiazolo[4,5-d]pyrimidin-7-yl]amino]ethyl]methanesulfonamide] |
| 270 °C (dec.) | O=c1[nH]c2nc(SCc3cccc(F)c3F)nc(N[C@@H]3CNC[C@H]3O)c2s1 [Example 18, 5-[[(2,3-Difluorophenyl)methyl]thio]-7-[[(3R,4R)-4-hydroxypyrrolidin-3-yl]amino]-thiazolo[4,5-d]pyrimidin-2(3H)-one] |
| 231 to 232 °C | Cc1nc(CSc2nc(NC(C)(C)CO)c3sc(=O)[nH]c3n2)cs1 [Example 22, 7-[(2-Hydroxy-1,1-dimethylethyl)amino]-5-[[(2-methyl-4-thiazolyl)methyl]thio]thiazolo[4,5-d]pyrimidin-2(3H)-one] |
| 215 to 216 °C | NCCNc1nc(SCc2cccc(F)c2F)nc2[nH]c(=O)sc12 [Example 8, 7-[(2-aminoethyl)amino]-5-[[(2,3-difluorophenyl)methyl]thio]thiazolo[4,5-d]pyrimidin-2(3H)-one] |
| 207 to 208 °C | CC(C)(CO)Nc1nc(SCc2ccccc2)nc2[nH]c(=O)sc12 [Example 1, 7-[(2-Hydroxy-1,1-dimethylethyl)amino]-5-[(phenylmethyl)thio]thiazolo[4,5-d]pyrimidin-2(3H)-one] |
| 145 to 151 °C | NC(=O)[C@H](CO)Nc1nc(SCc2cccc(F)c2F)nc2[nH]c(=O)sc12 [Example 26, (2S)-2-[[5-[[(2,3-Difluorophenyl)methyl]thio]-2,3-dihydro-2-oxothiazolo[4,5-d]pyrimidin-7-yl]amino]-3-hydroxy-propanamide] |
| 178 to 179 °C | O=c1[nH]c2nc(SCc3cccc(F)c3F)nc(NC(CO)CO)c2s1 [Example 7, 5-[[(2,3-difluorophenyl)methyl]thio]-7-[[2-hydroxy-1-(hydroxymethyl)ethyl]amino]thiazolo[4,5-d]pyrimidin-2(3H)-one] |
| 239 to 243 °C | Cc1nc(CSc2nc(NC(CO)CO)c3sc(=O)[nH]c3n2)cs1 [Example 21, 7-[[2-Hydroxy-1-(hydroxymethyl)ethyl]amino]-5-[[(2-methyl-4-thiazolyl)methyl]thio]thiazolo[4,5-d]pyrimidin-2(3H)-one] |
| 241 to 243 °C | C[C@H](CN)Nc1nc(SCc2cccc(Cl)c2F)nc2[nH]c(=O)sc12 [Example 25, 7-[[(1R)-2-Amino-1-methylethyl]amino]-5-[[(3-chloro-2-fluorophenyl)methyl]thio]thiazolo[4,5-d]pyrimidin-2(3H)-one] |
| 217 to 219 °C | O=c1[nH]c2nc(SCc3cccc(F)c3F)nc(NCCO)c2s1 [Example 9, 5-[[(2,3-difluorophenyl)methyl]thio]-7-[(2-hydroxyethyl)amino]thiazolo[4,5-d]pyrimidin-2(3H)-one] |
| 221 to 222 °C | CC(COCCO)Nc1nc(SCc2cccc(F)c2F)nc2[nH]c(=O)sc12 (racemic) [Example 11, (+/−)-5-[[(2,3-difluorophenyl)methyl]thio]-7-[[2-(2-hydroxyethoxy)-1-methylethyl]amino]thiazolo[4,5-d]pyrimidin-2(3H)-one] |
| > 250 °C | COCC(CO)Nc1nc(SCc2cccc(F)c2F)nc2[nH]c(=O)sc12.[Na] (racemic) |

Reference: patent publication US8143261B2, “Thiazolo (4,5-D) pyrimidine compounds” (AstraZeneca AB, priority 1999, dated 2012)
